Experimental data taken from patent EP0318620A1, “Herbicidal sulfonamides” (E.I. DU PONT DE NEMOURS AND COMPANY, priority 1987, dated 1989).

Columns and labels:
morningglory [1] = assay: Test A greenhouse herbicide test, pre- and postemergence; assay type: in vivo, Ipomoea spp.; settings: rated after sixteen days
From the text: (§1) Seeds of crabgrass (Digitaria spp.), barnyardgrass (Echinochloa crusgalli), cheatgrass (Bromus Secalinus), giant foxtail (Setaria faberii), wild oats (Avena fatua), velvetleaf (Abutilon theophrasti), morningglory (Ipomoea spp. , cocklebur (Xanthium pensylvanicum). sorghum, corn, barley, soybean, sugarbeet, cotton, rice, wheat and purple nutsedge (Cyperus rotundus) tubers were planted and treated preemergence with the test chemicals dissolved in a non-phytotoxic solvent. At the same time, these crop and weed species were treated with a soil/foliage application. At the time of treatment, the plants ranged in height from 2 to 18 cm. Treated plants and controls were maintained in a greenhouse for sixteen days, after which all species were compared to controls and visually rated for response to treatment. The ratings, summarized in Table A, are based on a numerical scale extending from 0 = no injury, to 10 = complete kill. The accompanying descriptive symbols have the following meanings: • B = burn; • C = chlorosis/necrosis; • D = defoliation; • E = emergence inhibition; • G = growth retardation; • H = formative effect; • U = unusual pigmentation; • X = axillary stimulation; • S = albinism; and • 6Y = abscised buds or flowers.

cheatgrass = assay: as above; assay type: in vivo, Bromus Secalinus; settings: rated after sixteen days
From the text: as §1

barnyardgrass [2] = assay: as above; assay type: in vivo, Echinochloa crusgalli; settings: rated after sixteen days
From the text: as §1

nutsedge = assay: Test B pan test in Sassafras sandy loam soil, pre- and postemergence; assay type: in vivo, Cyperus rotundus; settings: scale 0 to 100
From the text: (§2) Three round pans (25 cm diameter by 12.5 cm deep) were filled with Sassafras sandy loam soil. One pan was planted with nutsedge (Cyperus rotundus) tubers, crabgrass (Digitaria sanguinalis), sicklepod (Cassia obtusifolia), jimsonweed (Datura stramonium), velvetleaf (Abutilon theophrasti), lambsquarters (Chenopodim album), rice (Oryza sativa) and teaweed (Sida spinosa). The second pot was planted with green foxtail (Setaria viridis), cocklebur (Xantium pensyivanicum), morningglory (lpomoea hederacea), cotton (Gossypium hirsutum), johnsongrass (Sorghum halepense), barnyardgrass (Echinochloa crusgalli), corn (Zea mays), soybean (Glycine max) and giant foxtail (Setaria faberi). The third pot was planted with wheat (Triticum aestivum), barley (Hordeum vulgare), wild buckwheat (Polgonum convolvulus L.), cheatgrass (Bromus secalinus L.), sugarbeet (Beta vulgaris), wild oats (Avena fatua), viola (Viola arvensis), blackgrass (Alopecurus myosuroides), and rape (Brassica napus). The plants were grown for approximately fourteen days, then sprayed postemergence with the chemicals dissolved in a non-phytotoxic solvent.
(§3) Three round pans (25 cm diameter by 12.5 cm deep) were filled with Sassafras sandy loam soil. One pan was planted with nutsedge tubers, crabgrass, sicklepod, jimsonweed, velvetleaf, lambsquarters, rice and teaweed. The second pot was planted with green foxtail, cocklebur, morningglory, cottom, johnsongrass, . barnyardgrass, corn, soybean and giant foxtail. The third pot was planted with wheat, barley, wild buckwheat, cheatgrass, sugarbeet, wild oat, viola, blackgrass and rape. The three pans were sprayed preemer gence with the chemicals dissolved in a non-phytotoxic solvent.
(§4) Treated plants and controls were maintained in the greenhouse for 24 days, then all rated plants were compared to controls and visually rated for plant response.
(§5) A dash (-) response means no test.

purple nutsedge = assay: Test A greenhouse herbicide test, pre- and postemergence; assay type: in vivo, Cyperus rotundus; settings: rated after sixteen days
From the text: as §1

velvetleaf [3] = assay: Test B pan test in Sassafras sandy loam soil, pre- and postemergence; assay type: in vivo, Abutilon theophrasti; settings: scale 0 to 100
From the text: as §2, §3, §4, §5

rice = assay: as above; assay type: in vivo, Oryza sativa; settings: scale 0 to 100
From the text: as §2, §3, §4, §5

wild oats = assay: as above; assay type: in vivo, Avena fatua; settings: scale 0 to 100
From the text: as §2, §3, §4, §5

johnsongrass = assay: as above; assay type: in vivo, Sorghum halepense; settings: scale 0 to 100
From the text: as §2, §3, §4, §5

barnyardgrass [4] = assay: as above; assay type: in vivo, Echinochloa crusgalli; settings: scale 0 to 100
From the text: as §2, §3, §4, §5

velvetleaf [5] = assay: Test A greenhouse herbicide test, pre- and postemergence; assay type: in vivo, Abutilon theophrasti; settings: rated after sixteen days
From the text: as §1

cocklebur = assay: Test B pan test in Sassafras sandy loam soil, pre- and postemergence; assay type: in vivo, Xantium pensyivanicum; settings: scale 0 to 100
From the text: as §2, §3, §4, §5

morningglory [6] = assay: as above; assay type: in vivo, lpomoea hederacea; settings: scale 0 to 100
From the text: as §2, §3, §4, §5

wheat = assay: as above; assay type: in vivo, Triticum aestivum; settings: scale 0 to 100
From the text: as §2, §3, §4, §5

SMILES: CCOC(=O)c1c(CC#N)cccc1S(=O)(=O)NC(=O)Nc1nc(OC)cc(OC)n1 [Compound 3, 2-(cyanomethyl)-6 [[(4,6-dimethoxypyrimidin-2-yl)-aminocarbonyl]aminosulfonyl]benzoic acid, ethyl ester]
- MORNING GLORY visual rating of response to treatment (morningglory [1]; POSTEMERGENCE, RATE 0.01 KG/HA): 10C
- MORNING GLORY visual rating of response to treatment (morningglory [1]; POSTEMERGENCE, RATE 0.05 KG/HA): 10C
- MORNING GLORY visual rating of response to treatment (morningglory [1]; PREEMERGENCE, RATE 0.01 KG/HA): 2G
- MORNING GLORY visual rating of response to treatment (morningglory [1]; PREEMERGENCE, RATE 0.05 KG/HA): 9G
- CHEATGRASS visual rating of response to treatment (cheatgrass; POSTEMERGENCE, RATE 0.01 KG/HA): 6G
- CHEATGRASS visual rating of response to treatment (cheatgrass; PREEMERGENCE, RATE 0.01 KG/HA): 5G
- CHEATGRASS visual rating of response to treatment (cheatgrass; PREEMERGENCE, RATE 0.05 KG/HA): 8H
- BARNYARD GRASS visual rating of response to treatment (barnyardgrass [2]; POSTEMERGENCE, RATE 0.01 KG/HA): 9C
- BARNYARD GRASS visual rating of response to treatment (barnyardgrass [2]; POSTEMERGENCE, RATE 0.05 KG/HA): 10C
- BARNYARD GRASS visual rating of response to treatment (barnyardgrass [2]; PREEMERGENCE, RATE 0.01 KG/HA): 2G
- NUTSEDGE response rating (nutsedge; POSTEMERGENCE, RATE 0001 G/HA): 100
- NUTSEDGE response rating (nutsedge; POSTEMERGENCE, RATE 0004 G/HA): 100
- NUTSEDGE response rating (nutsedge; POSTEMERGENCE, RATE 0016 G/HA): 100
- NUTSEDGE response rating (nutsedge; POSTEMERGENCE, RATE 0062 G/HA): 100
- NUTSEDGE response rating (nutsedge; PREEMERGENCE, RATE 0004 G/HA): 0
- NUTSEDGE response rating (nutsedge; PREEMERGENCE, RATE 0016 G/HA): 30
- NUTSEDGE response rating (nutsedge; PREEMERGENCE, RATE 0062 G/HA): 70
- NUTSEDGE visual rating of response to treatment (purple nutsedge; POSTEMERGENCE, RATE 0.01 KG/HA): 10C
- NUTSEDGE visual rating of response to treatment (purple nutsedge; POSTEMERGENCE, RATE 0.05 KG/HA): 10C
- NUTSEDGE visual rating of response to treatment (purple nutsedge; PREEMERGENCE, RATE 0.01 KG/HA): 4G
- NUTSEDGE visual rating of response to treatment (purple nutsedge; PREEMERGENCE, RATE 0.05 KG/HA): 9G
- VELVETLEAF response rating (velvetleaf [3]; POSTEMERGENCE, RATE 0001 G/HA): 70
- VELVETLEAF response rating (velvetleaf [3]; POSTEMERGENCE, RATE 0004 G/HA): 100
- VELVETLEAF response rating (velvetleaf [3]; POSTEMERGENCE, RATE 0016 G/HA): 100
- VELVETLEAF response rating (velvetleaf [3]; POSTEMERGENCE, RATE 0062 G/HA): 100
- VELVETLEAF response rating (velvetleaf [3]; PREEMERGENCE, RATE 0004 G/HA): 0
- VELVETLEAF response rating (velvetleaf [3]; PREEMERGENCE, RATE 0016 G/HA): 30
- VELVETLEAF response rating (velvetleaf [3]; PREEMERGENCE, RATE 0062 G/HA): 50
- RICE response rating (rice; POSTEMERGENCE, RATE 0001 G/HA): 60
- RICE response rating (rice; POSTEMERGENCE, RATE 0004 G/HA): 90
- RICE response rating (rice; POSTEMERGENCE, RATE 0016 G/HA): 100
- RICE response rating (rice; POSTEMERGENCE, RATE 0062 G/HA): 100
- RICE response rating (rice; PREEMERGENCE, RATE 0004 G/HA): 0
- RICE response rating (rice; PREEMERGENCE, RATE 0016 G/HA): 30
- RICE response rating (rice; PREEMERGENCE, RATE 0062 G/HA): 80
- WILD OATS response rating (wild oats; POSTEMERGENCE, RATE 0001 G/HA): 0
- WILD OATS response rating (wild oats; POSTEMERGENCE, RATE 0004 G/HA): 30
- WILD OATS response rating (wild oats; POSTEMERGENCE, RATE 0016 G/HA): 50
- WILD OATS response rating (wild oats; POSTEMERGENCE, RATE 0062 G/HA): 80
- WILD OATS response rating (wild oats; PREEMERGENCE, RATE 0004 G/HA): 20
- WILD OATS response rating (wild oats; PREEMERGENCE, RATE 0016 G/HA): 40
- WILD OATS response rating (wild oats; PREEMERGENCE, RATE 0062 G/HA): 60
- JOHNSONGRASS response rating (johnsongrass; POSTEMERGENCE, RATE 0001 G/HA): 30
- JOHNSONGRASS response rating (johnsongrass; POSTEMERGENCE, RATE 0004 G/HA): 60
- JOHNSONGRASS response rating (johnsongrass; POSTEMERGENCE, RATE 0016 G/HA): 100
- JOHNSONGRASS response rating (johnsongrass; POSTEMERGENCE, RATE 0062 G/HA): 100
- JOHNSONGRASS response rating (johnsongrass; PREEMERGENCE, RATE 0004 G/HA): 0
- JOHNSONGRASS response rating (johnsongrass; PREEMERGENCE, RATE 0016 G/HA): 30
- JOHNSONGRASS response rating (johnsongrass; PREEMERGENCE, RATE 0062 G/HA): 80
- BARNYARD GRASS response rating (barnyardgrass [4]; POSTEMERGENCE, RATE 0001 G/HA): 70
- BARNYARD GRASS response rating (barnyardgrass [4]; POSTEMERGENCE, RATE 0004 G/HA): 100
- BARNYARD GRASS response rating (barnyardgrass [4]; POSTEMERGENCE, RATE 0016 G/HA): 100
- BARNYARD GRASS response rating (barnyardgrass [4]; POSTEMERGENCE, RATE 0062 G/HA): 100
- BARNYARD GRASS response rating (barnyardgrass [4]; PREEMERGENCE, RATE 0004 G/HA): 30
- BARNYARD GRASS response rating (barnyardgrass [4]; PREEMERGENCE, RATE 0016 G/HA): 50
- BARNYARD GRASS response rating (barnyardgrass [4]; PREEMERGENCE, RATE 0062 G/HA): 80
- VELVETLEAF visual rating of response to treatment (velvetleaf [5]; POSTEMERGENCE, RATE 0.01 KG/HA): 10C
- VELVETLEAF visual rating of response to treatment (velvetleaf [5]; POSTEMERGENCE, RATE 0.05 KG/HA): 10C
- VELVETLEAF visual rating of response to treatment (velvetleaf [5]; PREEMERGENCE, RATE 0.01 KG/HA): 2H
- VELVETLEAF visual rating of response to treatment (velvetleaf [5]; PREEMERGENCE, RATE 0.05 KG/HA): 5H
- COCKLEBUR response rating (cocklebur; POSTEMERGENCE, RATE 0001 G/HA): 70
- COCKLEBUR response rating (cocklebur; POSTEMERGENCE, RATE 0004 G/HA): 80
- COCKLEBUR response rating (cocklebur; POSTEMERGENCE, RATE 0016 G/HA): 90
- COCKLEBUR response rating (cocklebur; POSTEMERGENCE, RATE 0062 G/HA): 100
- COCKLEBUR response rating (cocklebur; PREEMERGENCE, RATE 0004 G/HA): 30
- COCKLEBUR response rating (cocklebur; PREEMERGENCE, RATE 0016 G/HA): 60
- COCKLEBUR response rating (cocklebur; PREEMERGENCE, RATE 0062 G/HA): 90
- MORNINGGLORY response rating (morningglory [6]; POSTEMERGENCE, RATE 0001 G/HA): 30
- MORNINGGLORY response rating (morningglory [6]; POSTEMERGENCE, RATE 0004 G/HA): 50
- MORNINGGLORY response rating (morningglory [6]; POSTEMERGENCE, RATE 0016 G/HA): 70
- MORNINGGLORY response rating (morningglory [6]; POSTEMERGENCE, RATE 0062 G/HA): 90
- MORNINGGLORY response rating (morningglory [6]; PREEMERGENCE, RATE 0004 G/HA): 0
- MORNINGGLORY response rating (morningglory [6]; PREEMERGENCE, RATE 0016 G/HA): 0
- MORNINGGLORY response rating (morningglory [6]; PREEMERGENCE, RATE 0062 G/HA): 30
- WHEAT response rating (wheat; POSTEMERGENCE, RATE 0001 G/HA): 30
- WHEAT response rating (wheat; POSTEMERGENCE, RATE 0004 G/HA): 50
- WHEAT response rating (wheat; POSTEMERGENCE, RATE 0016 G/HA): 70
- WHEAT response rating (wheat; POSTEMERGENCE, RATE 0062 G/HA): 100
- WHEAT response rating (wheat; PREEMERGENCE, RATE 0004 G/HA): 0
- WHEAT response rating (wheat; PREEMERGENCE, RATE 0016 G/HA): 30
- WHEAT response rating (wheat; PREEMERGENCE, RATE 0062 G/HA): 70
